Source: patent US6525053B1, “Prostaglandin endoperoxide H synthase biosynthesis inhibitors” (Abbott Laboratories, priority 1997, dated 2003)

Tests used:
recombinant human Cox-2 = target: T1, recombinant human Cox-2 (Homo sapiens, UniProt P35354); assay: Recombinant human PGHS-2 (Cox-2) enzyme assay, PGE2 by EIA; type: biochemical; details: at 1000 nM
T1 construct: made in house; host or cells: baculovirus/Sf9 insect cells (microsomes)
T1 sequence (P35354 18-604): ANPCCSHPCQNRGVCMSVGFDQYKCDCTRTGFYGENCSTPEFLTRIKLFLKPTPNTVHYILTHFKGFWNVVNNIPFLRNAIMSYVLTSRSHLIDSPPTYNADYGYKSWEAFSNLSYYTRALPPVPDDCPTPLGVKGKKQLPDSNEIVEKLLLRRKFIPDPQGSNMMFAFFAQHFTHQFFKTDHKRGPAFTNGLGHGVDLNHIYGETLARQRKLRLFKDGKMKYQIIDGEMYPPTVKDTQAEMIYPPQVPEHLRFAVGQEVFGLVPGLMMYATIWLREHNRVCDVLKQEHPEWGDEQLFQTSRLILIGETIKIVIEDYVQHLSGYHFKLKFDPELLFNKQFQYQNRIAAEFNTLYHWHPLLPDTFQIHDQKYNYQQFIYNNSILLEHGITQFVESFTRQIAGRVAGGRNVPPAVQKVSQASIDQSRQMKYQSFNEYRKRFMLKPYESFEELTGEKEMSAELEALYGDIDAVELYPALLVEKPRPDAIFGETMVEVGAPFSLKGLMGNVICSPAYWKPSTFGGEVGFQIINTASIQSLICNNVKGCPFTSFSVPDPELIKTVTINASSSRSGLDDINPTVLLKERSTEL
Procedure: To compare the mean responses of the treatment groups, analysis of variance was applied. Percent inhibition values were determined by comparing the individual treatment mean values to the mean of the control group. Linear regression was used to estimate IC50's/ED50's in appropriate assays.
EIA reagents for prostaglandin determination were purchased from Perseptive Diagnostics, (Cambridge, Mass.). PGE2 levels in lavage fluids were determined after the samples were dried under nitrogen and reconstituted with assay buffer. PGE2 levels in enzyme assays or cell culture media were measured against standards prepared in the same milieu. The immunoassays were conducted as recommended by the manufacturer. The EIA was conducted in 96 well microtiter plates (Nunc Roskilde, Denmark) and optical density was measured using a microplate reader (Vmax, Molecular Devices Corp., Menlo Park, Calif.).
Inhibition of prostaglandin biosynthesis in vitro was evaluated using recombinant human Cox-1 (r-hu Cox1) and Cox-2 (r-hu Cox2) enzyme assays. […] PGE2 production in the presence and absence of the drug was determined by EIA analysis. The EIA was conducted in 96 well microtiter plates (Nunc Roskilde, Denmark) and optical density was measured using a microplate reader (Vmax, Molecular Devices Corp., Menlo Park, Calif.). […] PGE2 levels were measured against standards prepared in the same milieu. […]

Compound	melting point [°C]	RHUCX2 Cox-2 percent inhibition (recombinant human Cox-2)
CCCCn1nc(-c2ccc(F)cc2)c(-c2ccc(S(C)(=O)=O)cc2)cc1=O [Example 11, 2-(n-Butyl)-5-(4-methylsulfonylphenyl)-6-(4-fluorophenyl)-3(2H)-pyridazinone]	111 to 113	
CS(=O)(=O)c1ccc(-c2cc(=O)n(CC3CCCC3)nc2-c2ccc(F)cc2)cc1 [Example 24, 2-Cyclopentylmethyl-5-(4-methylsulfonylphenyl)-6-(4-fluorophenyl)-3(2H)-pyridazinone]	76 to 77	
CS(=O)(=O)c1ccc(-c2cc(=O)[nH]nc2-c2ccc(F)cc2)cc1 [Example 6, 5-(4-Methylsulfonylphenyl)-6-(4-fluorophenyl)-3(2H)-pyridazinone]	260 to 262	
CS(=O)(=O)c1ccc(-c2cc(=O)n(CC3CCC3)nc2-c2ccc(F)cc2)cc1 [Example 20, 2-(Cyclobutylmethyl)-5-(4-methylsulfonylphenyl)-6-(4-fluorophenyl)-3(2H)-pyridazinone]	74 to 76	
CS(=O)(=O)c1ccc(-c2cc(=O)n(C3CCCCC3)nc2-c2ccc(F)cc2)cc1 [Example 18, 2-Cyclohexyl-5-(4-methylsulfonylphenyl)-6-(4-fluorophenyl)-3(2H)-pyridazinone]	86 to 90	
CS(=O)(=O)c1ccc(-c2cc(=O)n(C3CCCC3)nc2-c2ccc(F)cc2)cc1 [Example 25, 2-Cyclopentyl-5-(4-methylsulfonylphenyl)-6-(4-fluorophenyl)-3(2H)-pyridazinone]	191 to 192	
CCCCCn1nc(-c2ccc(F)cc2)c(-c2ccc(S(C)(=O)=O)cc2)cc1=O [Example 14, 2-(n-Pentyl)-5-(4-methylsulfonylphenyl)-6-(4-fluorophenyl)-3(2H)-pyridazinone]	65 to 67	
CS(=O)(=O)c1ccc(-c2cc(=O)n(Cc3ccccc3)nc2-c2ccc(F)cc2)cc1 [Example 7, 2-Benzyl-5-(4-methylsulfonylphenyl)-6-(4-fluorophenyl)-3(2H)-pyridazinone]	172 to 174	
Cn1nc(-c2ccc(F)cc2)c(-c2ccc(S(C)(=O)=O)cc2)cc1=O [Example 8, 2-Methyl-5-(4-methylsulfonylphenyl)-6-(4-fluorophenyl)-3(2H)-pyridazinone]	181 to 182	
CCn1nc(-c2ccc(F)cc2)c(-c2ccc(S(C)(=O)=O)cc2)cc1=O [Example 9, 2-Ethyl-5-(4-methylsulfonylphenyl)-6-(4-fluorophenyl)-3(2H)-pyridazinone]	177 to 179	
CS(=O)(=O)c1ccc(-c2cc(=O)n(CC(F)(F)F)nc2-c2ccc(F)cc2)cc1 [Example 22, 2-(2,2,2-Trifluoroethyl)-5-(4-methylsulfonylphenyl)-6-(4-fluorphenyl)-3(2H)-pyridazinone]		46 @ 1000%
CS(=O)(=O)c1ccc(-c2cc(=O)n(CC3CC3)nc2-c2ccc(F)cc2)cc1 [Example 23, 2-(Cyclopropylmethyl)-5-(4-methylsulfonylphenyl)-6-(4-fluorophenyl)-3(2H)-pyridazinone]	130 to 132	
CCCn1nc(-c2ccc(F)cc2)c(-c2ccc(S(C)(=O)=O)cc2)cc1=O [Example 13, 2-(n-Propyl)-5-(4-methylsulfonylphenyl)-6-(4-fluorophenyl)-3(2H)-pyridazinone]	155 to 157	

Further lines, results first:

melting point [°C]	RHUCX2 Cox-2 percent inhibition (recombinant human Cox-2)	Compound
175 to 176		CS(=O)(=O)c1ccc(-c2cc(=O)n(CC3CCCCC3)nc2-c2ccc(F)cc2)cc1 [Example 15, 2-Cyclohexylmethyl-5-(4-methylsulfonylphenyl)-6-(4-fluorophenyl)-3(2H)-pyridazin-one]
71 to 72		CC(C)=CCn1nc(-c2ccc(F)cc2)c(-c2ccc(S(C)(=O)=O)cc2)cc1=O [Example 21]
150 to 151		CS(=O)(=O)c1ccc(-c2cc(=O)n(Cc3ccc(F)cc3)nc2-c2ccc(F)cc2)cc1 [Example 10, 2-(4-Fluorobenzyl)-5-(4-methylsulfonylphenyl)-6-(4-fluorophenyl)-3(2H)-pyridazinone]
168 to 169		C#CCn1nc(-c2ccc(F)cc2)c(-c2ccc(S(C)(=O)=O)cc2)cc1=O [Example 17, 2-Propargyl-5-(4-methylsulfonylphenyl)-6-(4-fluorophenyl)-3(2H)-pyridazinone]
81 to 82		CC#CCn1nc(-c2ccc(F)cc2)c(-c2ccc(S(C)(=O)=O)cc2)cc1=O [Example 19, 2-(2-Butyn-1-yl)-5-(4-methylsulfonylphenyl)-6-(4-fluorophenyl)-3(2H)-pyridazinone]
178 to 180		CS(=O)(=O)c1ccc(-c2cc(=O)n(CC(=O)c3ccccc3)nc2-c2ccc(F)cc2)cc1 [Example 16, 2-Phenacyl-5-(4-methylsulfonylphenyl)-6-(4-fluorophenyl)-3(2H)-pyridazinone]
185 to 186		CC(c1ccc(F)cc1)n1nc(-c2ccc(F)cc2)c(-c2ccc(S(C)(=O)=O)cc2)cc1=O (stereo not drawn) [Example 12, 2-(4-Fluoro-α-methylbenzyl)-5-(4-methylsulfonylphenyl)-6-(4-fluorophenyl)-3(2H)-pyridazinone]
